# Source: the supplement of paper PMC10307832
# Legend:
# Assay in all cases: relative viability (nuclei count vs DMSO), 5 days (fraction); higher = more cells survive
# Venetoclax + Palbociclib = compound: CC1(C)CCC(CN2CCN(c3ccc(C(=O)NS(=O)(=O)c4ccc(NCC5CCOCC5)c([N+](=O)[O-])c4)c(Oc4cnc5[nH]ccc5c4)c3)CC2)=C(c2ccc(Cl)cc2)C1 [Venetoclax] + CC(=O)c1c(C)c2cnc(Nc3ccc(N4CCNCC4)cn3)nc2n(C2CCCC2)c1=O [Palbociclib] (partner 0.5 µM)
# Procedure, shortened: (§1)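 Values are medians from duplicate plates. Each reflects relative viability, defined as the nuclei count of treated wells over that of vehicle wells. Lung cancer cell lines in 1536-well plates were pin-tool dosed one day after seeding with one drug alone or with a fixed anchor-drug dose plus five library-drug doses (not always all listed) in √10 steps, then fixed, stained and imaged at 4× after 5 days.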
# Venetoclax + Navitoclax = compound: CC1(C)CCC(CN2CCN(c3ccc(C(=O)NS(=O)(=O)c4ccc(NCC5CCOCC5)c([N+](=O)[O-])c4)c(Oc4cnc5[nH]ccc5c4)c3)CC2)=C(c2ccc(Cl)cc2)C1 [Venetoclax] + CC1(C)CCC(c2ccc(Cl)cc2)=C(CN2CCN(c3ccc(C(=O)NS(=O)(=O)c4ccc(N[C@H](CCN5CCOCC5)CSc5ccccc5)c(S(=O)(=O)C(F)(F)F)c4)cc3)CC2)C1 [Navitoclax] (partner 0.5 µM)
# Procedure, shortened: as §1
# Venetoclax + Linsitinib = compound: CC1(C)CCC(CN2CCN(c3ccc(C(=O)NS(=O)(=O)c4ccc(NCC5CCOCC5)c([N+](=O)[O-])c4)c(Oc4cnc5[nH]ccc5c4)c3)CC2)=C(c2ccc(Cl)cc2)C1 [Venetoclax] + C[C@]1(O)C[C@@H](c2nc(-c3ccc4ccc(-c5ccccc5)nc4c3)c3c(N)nccn32)C1 [Linsitinib] (partner 1 µM)
# Procedure, shortened: as §1
# Venetoclax + Olaparib = compound: CC1(C)CCC(CN2CCN(c3ccc(C(=O)NS(=O)(=O)c4ccc(NCC5CCOCC5)c([N+](=O)[O-])c4)c(Oc4cnc5[nH]ccc5c4)c3)CC2)=C(c2ccc(Cl)cc2)C1 [Venetoclax] + O=C(c1cc(Cc2n[nH]c(=O)c3ccccc23)ccc1F)N1CCN(C(=O)C2CC2)CC1 [Olaparib] (partner 8 µM)
# Procedure, shortened: as §1
cell line,measurement,setting,value
UMC-11,relative viability,Venetoclax + Palbociclib; first compound 0.01 µM,0.37
same,relative viability,Venetoclax + Palbociclib; first compound 0.03162 µM,0.334
same,relative viability,Venetoclax + Palbociclib; first compound 0.1 µM,0.277
same,relative viability,Venetoclax + Palbociclib; first compound 0.3162 µM,0.304
same,relative viability,Venetoclax + Palbociclib; first compound 1 µM,0.324
same,relative viability,Venetoclax + Navitoclax; first compound 0.01 µM,0.307
same,relative viability,Venetoclax + Navitoclax; first compound 0.03162 µM,0.31
same,relative viability,Venetoclax + Navitoclax; first compound 0.1 µM,0.255
same,relative viability,Venetoclax + Navitoclax; first compound 0.3162 µM,0.284
same,relative viability,Venetoclax + Navitoclax; first compound 1 µM,0.249
same,relative viability,Venetoclax + Linsitinib; first compound 0.01 µM,1
same,relative viability,Venetoclax + Linsitinib; first compound 0.03162 µM,1.01
same,relative viability,Venetoclax + Linsitinib; first compound 0.1 µM,0.912
same,relative viability,Venetoclax + Linsitinib; first compound 0.3162 µM,0.932
same,relative viability,Venetoclax + Linsitinib; first compound 1 µM,0.959
same,relative viability,Venetoclax + Olaparib; first compound 0.01 µM,0.401
same,relative viability,Venetoclax + Olaparib; first compound 0.03162 µM,0.322
same,relative viability,Venetoclax + Olaparib; first compound 0.1 µM,0.303
same,relative viability,Venetoclax + Olaparib; first compound 0.3162 µM,0.379
same,relative viability,Venetoclax + Olaparib; first compound 1 µM,0.886
